# Data taken from PubChem BioAssay AID2060497 (Molecular Pharmacology Branch, DTP, NCI, 2025).
# System: 317291-083-R-J1-PDC complex spheroids, viability
# Test: Anticancer human tumor 317291-083-R-J1-PDC patient-derived soft tissue sarcoma cell line growth inhibition [GQUAD]
# Settings: for IC50: curve of first compound; for viability, T/C: stronger effect = lower value
# How it was run: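 Tumor cells were grown as complex spheroids with HUVEC endothelial cells and mesenchymal stem cells as stroma. G-quadruplex stabilizers were combined with targeted agents over half-log dilutions from near the clinical Cmax, or from 10 microM.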
# [1] = second compound 0.0316 µM, first compound 0.0316 µM
# [2] = second compound 0.0316 µM, first compound 0.1 µM
# [3] = second compound 0.0316 µM, first compound 0.316 µM
# [4] = second compound 0.0316 µM, first compound 1 µM
# [5] = second compound 0.0316 µM, first compound 3.16 µM
# [6] = second compound 0.0316 µM, first compound 10 µM
# [7] = second compound 0.1 µM, first compound 0.0316 µM
# [8] = second compound 0.1 µM, first compound 0.1 µM
# [9] = second compound 0.1 µM, first compound 0.316 µM
# [10] = second compound 0.1 µM, first compound 1 µM
# [11] = second compound 0.1 µM, first compound 3.16 µM
# [12] = second compound 0.1 µM, first compound 10 µM
# [13] = second compound 0.316 µM, first compound 0.0316 µM
# [14] = second compound 0.316 µM, first compound 0.1 µM
# [15] = second compound 0.316 µM, first compound 0.316 µM
# [16] = second compound 0.316 µM, first compound 1 µM
# [17] = second compound 0.316 µM, first compound 3.16 µM
# [18] = second compound 0.316 µM, first compound 10 µM
# [19] = second compound 1 µM, first compound 0.0316 µM
# [20] = second compound 1 µM, first compound 0.1 µM
# [21] = second compound 1 µM, first compound 0.316 µM
# [22] = second compound 1 µM, first compound 1 µM
# [23] = second compound 1 µM, first compound 3.16 µM
# [24] = second compound 1 µM, first compound 10 µM
# [25] = second compound 3.16 µM, first compound 0.0316 µM
# [26] = second compound 3.16 µM, first compound 0.1 µM
# [27] = second compound 3.16 µM, first compound 0.316 µM
# [28] = second compound 3.16 µM, first compound 1 µM
# [29] = second compound 3.16 µM, first compound 3.16 µM
# [30] = second compound 3.16 µM, first compound 10 µM
# [31] = second compound 10 µM, first compound 0.0316 µM
# [32] = second compound 10 µM, first compound 0.1 µM
# [33] = second compound 10 µM, first compound 0.316 µM
# [34] = second compound 10 µM, first compound 1 µM
# [35] = second compound 10 µM, first compound 3.16 µM
# [36] = second compound 10 µM, first compound 10 µM
# 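Also: spheroids exposed to compounds for one week before readout.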
# 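For viability, T/C in this document: percent viability relative to DMSO vehicle wells taken as 100%.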
smiles,measurement,setting,value
CC(=O)O[C@H]1C(=O)[C@@]2(C)[C@H]([C@H](OC(=O)c3ccccc3)[C@]3(O)C[C@H](OC(=O)[C@H](O)[C@@H](NC(=O)c4ccccc4)c4ccccc4)C(C)=C1C3(C)C)[C@]1(OC(C)=O)CO[C@@H]1C[C@@H]2O + Cc1cnc(CNC(=O)c2c(=O)c3ccc(N4CCCN(C)CC4)nc3n3c2sc2ccccc23)cn1,IC50,second compound 0.0316 µM,< 31.6 nM
same,IC50,second compound 0.1 µM,< 31.6 nM
same,IC50,second compound 0.316 µM,< 31.6 nM
same,IC50,second compound 1 µM,< 31.6 nM
same,IC50,second compound 3.16 µM,< 31.6 nM
same,IC50,second compound 10 µM,< 31.6 nM
same,"viability, T/C",[1],29.2%
same,"viability, T/C",[2],14.9%
same,"viability, T/C",[3],8.69%
same,"viability, T/C",[4],9.72%
same,"viability, T/C",[5],11.3%
same,"viability, T/C",[6],9.08%
same,"viability, T/C",[7],25.4%
same,"viability, T/C",[8],8.37%
same,"viability, T/C",[9],11.1%
same,"viability, T/C",[10],8.92%
same,"viability, T/C",[11],10%
same,"viability, T/C",[12],10.2%
same,"viability, T/C",[13],17.5%
same,"viability, T/C",[14],12.3%
same,"viability, T/C",[15],8.21%
same,"viability, T/C",[16],9.2%
same,"viability, T/C",[17],7.36%
same,"viability, T/C",[18],8.93%
same,"viability, T/C",[19],17.8%
same,"viability, T/C",[20],10.5%
same,"viability, T/C",[21],8.43%
same,"viability, T/C",[22],11.4%
same,"viability, T/C",[23],8.77%
same,"viability, T/C",[24],9.02%
same,"viability, T/C",[25],14.3%
same,"viability, T/C",[26],7.98%
same,"viability, T/C",[27],11.2%
same,"viability, T/C",[28],5.02%
same,"viability, T/C",[29],14.6%
same,"viability, T/C",[30],5.59%
same,"viability, T/C",[31],0.22%
same,"viability, T/C",[32],11.5%
same,"viability, T/C",[33],7.59%
same,"viability, T/C",[34],1.49%
same,"viability, T/C",[35],0.95%
same,"viability, T/C",[36],0.58%
C#Cc1c(F)ccc2cc(O)cc(-c3ncc4c(N5CC6CCC(C5)N6)nc(OCC56CCCN5CC(F)C6)nc4c3F)c12 (centres undefined) + CN(C)c1ccc(Nc2c3ccc(NC(=O)CCN4CCCC4)cc3nc3cc(NC(=O)CCN4CCCC4)ccc23)cc1,IC50,second compound 0.0316 µM,5660 nM
same,IC50,second compound 0.1 µM,5140 nM
same,IC50,second compound 0.316 µM,1010 nM
same,IC50,second compound 1 µM,< 31.6 nM
same,IC50,second compound 3.16 µM,< 31.6 nM
same,IC50,second compound 10 µM,< 31.6 nM
same,"viability, T/C",[1],111%
same,"viability, T/C",[2],90.8%
same,"viability, T/C",[3],106%
same,"viability, T/C",[4],107%
same,"viability, T/C",[5],68%
same,"viability, T/C",[6],32.4%
same,"viability, T/C",[7],91.3%
same,"viability, T/C",[8],98.9%
same,"viability, T/C",[9],89.5%
same,"viability, T/C",[10],86.2%
same,"viability, T/C",[11],64.8%
same,"viability, T/C",[12],29.6%
same,"viability, T/C",[13],72.7%
same,"viability, T/C",[14],74.4%
same,"viability, T/C",[15],62.9%
same,"viability, T/C",[16],49.9%
same,"viability, T/C",[17],47.9%
same,"viability, T/C",[18],42.1%
same,"viability, T/C",[19],46.9%
same,"viability, T/C",[20],35%
same,"viability, T/C",[21],27.5%
same,"viability, T/C",[22],19.7%
same,"viability, T/C",[23],17.1%
same,"viability, T/C",[24],0.42%
same,"viability, T/C",[25],5.12%
same,"viability, T/C",[26],2.52%
same,"viability, T/C",[27],4.56%
same,"viability, T/C",[28],2.64%
same,"viability, T/C",[29],1.07%
same,"viability, T/C",[30],0.36%
same,"viability, T/C",[31],0.32%
same,"viability, T/C",[32],0.73%
same,"viability, T/C",[33],0.29%
same,"viability, T/C",[34],0.39%
same,"viability, T/C",[35],0.24%
same,"viability, T/C",[36],0.39%
